The numbers were not newly measured in article PMC7761982, “FDA-Approved Drugs with Potent In Vitro Antiviral Activity against Severe Acute Respiratory Syndrome Coronavirus 2” (Pharmaceuticals, 2020), which cites them from elsewhere.

For this data set, the system named is SARS-CoV-2. Particulars: in vitro; read-out: IC50 against SARS-CoV-2 (reported); cited from earlier work.

What is called IC50 is the point on the concentration scale where inhibition reaches its midpoint. Regarding `CC(=O)Oc1ccccc1C(=O)Nc1ncc([N+](=O)[O-])s1` [Nitazoxanide], the IC50 was 2120 nM.
